Laboratory results published in ChEMBL document CHEMBL3272101, “Antiviral activity of some beta-diketones. 4. Benzyl diketones. In vitro activity against both RNA and DNA viruses” (1978).
In brackets after ≈: the same amount, converted by molar mass. Activity calls are given as the source filed them. The rule behind the calls is not given here.

Assays:
Human alphaherpesvirus 2 = test: Antiviral activity against Herpesvirus 2; type: functional
Influenza A virus [1] = test: Antiviral activity against Influenza A2 Japan 170 virus infected in ferret trachea assessed as reduction in virus yield at 25 ug/ml; type: functional; conditions: A2 Japan 170, Trachea, in Mustela putorius
Equine herpesvirus sp. [2] = test: Antiviral activity Equine rhinovirus; type: functional
[3] = Antiviral activity against Human rhinovirus 17; type: functional, Human rhinovirus B17; conditions: Rhinovirus B
Influenza A virus [4] = test: Antiviral activity against Influenza A2 Japan 170 virus infected in ferret trachea assessed as reduction in virus yield at 50 ug/ml; type: functional; conditions: A2 Japan 170, Trachea, in Mustela putorius
Human respirovirus 3 = test: Antiviral activity against Parainfluenza virus 3; type: functional
Equine herpesvirus sp. [5] = test: Antiviral activity Equine rhinovirus infected in monkey trachea assessed as log reduction in virus yield at 25 ug/ml; type: functional
Human alphaherpesvirus 1 [6] = test: (§1) Antiviral activity against Herper simplex virus 1 Sheely infected in Blue Spruce mouse assessed as host survival time administered as 10% suspension in 1% gum tragacanth intravaginally, bid using cotton tampons treatment started 4 hrs post-infection for every 24 hrs and second treatment followed 6 hrs later for 7 days (reference value: >10.7 days); type: functional
Equine herpesvirus sp. [7] = test: Antiviral activity Equine rhinovirus infected in monkey trachea assessed as log reduction in virus yield at 50 ug/ml; type: functional
Human alphaherpesvirus 1 [8] = test: as §1, with “rate” for “time”, “days measured 14 days post-infection” for “days”, “40%)” for “>10.7 days)”; type: functional
Human alphaherpesvirus 1 [9] = test: Antiviral activity against Herpes simplex virus 1; type: functional
Human alphaherpesvirus 1 [10] = test: as §1, with “5%” for “10%”; type: functional
[11] = tested on: Respiratory syncytial virus; test: Antiviral activity against Respiratory syncytial virus; type: functional; conditions: human respiratory syncytial virus
rhinovirus A2 = test: Antiviral activity against Human rhinovirus 2; type: functional; conditions: Rhinovirus A
Human alphaherpesvirus 1 [12] = test: as §1, with “rate” for “time”, “5%” for “10%”, “days measured 14 days post-infection” for “days”, “40%)” for “>10.7 days)”; type: functional

| Structure (SMILES) | MIC (Human alphaherpesvirus 2) | further results |
| --- | --- | --- |
| CCC(=O)C(Cc1ccc(/C=C/c2ccc(OC)cc2Cl)cc1)C(=O)CC | 1.5 µg/mL (≈ 3.9 µM) |  |
| CCC(=O)C(Cc1ccc(Cc2ccc(OC)cc2)cc1)C(=O)CC | 6 µg/mL (≈ 17.7 µM) |  |
| CCC(=O)C(Cc1ccc(/C=C/c2ccc(O)cc2)cc1)C(=O)CC | 1.5 µg/mL (≈ 4.46 µM) |  |
| CCC(=O)C(Cc1ccc(/C=C/c2ccc(O)cc2Cl)cc1)C(=O)CC | 1.5 µg/mL (≈ 4.04 µM) |  |
| CCC(=O)C(Cc1ccc(CCc2ccc(OC)cc2)cc1)C(=O)CC | 3 µg/mL (≈ 8.51 µM) |  |
| CCC(=O)C(Cc1ccc(OC)cc1Cl)C(=O)CC | 50 µg/mL (≈ 177 µM) |  |
| CCC(=O)C(Cc1ccc(Oc2ccc(OC)cc2)cc1)C(=O)CC | 3 µg/mL (≈ 8.81 µM) |  |
| CCC(=O)C(CC1CCC(Cc2ccc(OC)cc2)CC1)C(=O)CC (configuration not stated) | 6 µg/mL (≈ 17.4 µM) |  |
| CCC(=O)C(C[C@H]1CC[C@@H](COc2ccc(OC)cc2Cl)CC1)C(=O)CC | 6 µg/mL (≈ 15.2 µM) |  |
| CCC(=O)C(Cc1ccc(O)cc1)C(=O)CC | inactive |  |
| CCC(=O)C(Cc1ccc(/C=C/c2ccc(Cl)cc2)cc1)C(=O)CC | inactive |  |
| CCC(=O)C(Cc1ccc(Cc2ccc(O)cc2)cc1)C(=O)CC | 3 µg/mL (≈ 9.25 µM) |  |
| CCC(=O)C(Cc1ccc(Cc2ccccc2)cc1)C(=O)CC | 6 µg/mL (≈ 19.5 µM) |  |
| CCC(=O)C(Cc1ccc(/C=C/c2ccc(OC)cc2)cc1)C(=O)CC | 1.25 µg/mL (≈ 3.57 µM) | inhibition at 25 µg/mL (Influenza A virus [1]): 0%; MIC (Equine herpesvirus sp. [2]): 0.06 µg/mL (≈ 0.171 µM); MIC [3]: 0.3 µg/mL (≈ 0.856 µM); inhibition at 50 µg/mL (Influenza A virus [4]): 0%; MIC (Human respirovirus 3): 3 µg/mL (≈ 8.56 µM); LCK (Equine herpesvirus sp. [5]): 1.7; Time (Human alphaherpesvirus 1 [6]): >11.4 days; LCK (Equine herpesvirus sp. [7]): 2; Survival (Human alphaherpesvirus 1 [8]): 60%; MIC (Human alphaherpesvirus 1 [9]): 0.7 µg/mL (≈ 2 µM); Time (Human alphaherpesvirus 1 [10]): >11.3 days; MIC [11]: 1.5 µg/mL (≈ 4.28 µM); MIC (rhinovirus A2): 0.2 µg/mL (≈ 0.571 µM); Survival (Human alphaherpesvirus 1 [12]): 50% |
| CCC(=O)C(Cc1ccc(OC)cc1)C(=O)CC | inactive |  |
| CCC(=O)C(Cc1ccc(C)cc1)C(=O)CC | inactive |  |
| CCC(=O)C(Cc1ccc(/C=C/c2ccc(OC)cc2Cl)cc1Cl)C(=O)CC | inactive |  |
| CCC(=O)C(Cc1ccc(/C=C/c2ccccc2)cc1)C(=O)CC | inactive |  |
